Experimental findings from paper PMC2873968, “Novel protein kinase D inhibitors cause potent arrest in prostate cancer cell growth and motility” (BMC Chemical Biology, 2010) are described below.

The structures appear in SMILES notation.

One data set is described as follows: MTT cytotoxicity assay. Particulars: human. Here is the method: PC3 cells were seeded into 96-well plates (3000 cells/well) and allowed to attach overnight. Cells were then incubated in media containing 0.3-100 μM inhibitors for 72 h. 3-(4,5-Dimethylthiazol-2-yl)-2,5-diphenyltetrazolium bromide methyl thiazolyl tetrazolium (MTT) solution was prepared at 2 mg/ml concentration in PBS, sterilized by filtering through a 0.2 μm filter, and wrapped in foil to protect from light. 50 μl MTT solution was added to each well and incubated for 4 h at 37°C. Then, media was removed and 200 μl DMSO was added to each well. The plate was mixed for 5 min and the optical density was determined at 570 nm.
PC3 cells were seeded into 96-well plates (3000 cells/well) and were then incubated in media containing 0.3-100 μM inhibitors for 72 h. MTT solution was added to each well and incubated for 4 h. Optical density was read at 570 nm to determine cell viability. The EC50 was determined as the mean ± S.E.M. of three independent experiments for each compound.
(In general: Tetrazolium dyes change colour on reduction, which living cells bring about.)

The subject of a further data set is DU145 cells. In words: Matrigel invasion assay. It counts as cell-based. Particulars: 10 μM, 22 h. The protocol:
DU145 cells (8.0 × 10^4 cells/ml) in RPMI containing 0.1% fetal bovine serum (FBS) were seeded into the top chamber of BioCoat control inserts (pore size 8 μm) or BioCoat Matrigel invasion inserts with Matrigel-coated filters (BD Pharmingen). To stimulate invasion, media in the lower chamber of the insert contained 20% FBS. […] After incubation, noninvasive cells were removed using a cotton swab, and invasive cells were fixed in 100% methanol and stained with 1% crystal violet. After staining, cells were counted under a microscope (200× magnification). The percentage invasion was determined by cell counts in 5 fields of the number of cells that invaded the Matrigel matrix relative to the number of cells that migrated through the control insert.
After 22 hours, noninvasive cells were removed and invasive cells were fixed in 100% methanol, stained in […] crystal violet solution, and photographed. The number of cells that invaded the Matrigel matrix was determined by cell counts in 5 fields relative to the number of cells that migrated through the control insert. The data shown is the mean ± S.E.M. of two independent experiments. Statistical significance versus the control DMSO was determined by unpaired t-test. ***, p < 0.001.

The next data set addresses T1, PKD1 (Homo sapiens, UniProt Q15139).
T1 sequence (Q15139 1-912): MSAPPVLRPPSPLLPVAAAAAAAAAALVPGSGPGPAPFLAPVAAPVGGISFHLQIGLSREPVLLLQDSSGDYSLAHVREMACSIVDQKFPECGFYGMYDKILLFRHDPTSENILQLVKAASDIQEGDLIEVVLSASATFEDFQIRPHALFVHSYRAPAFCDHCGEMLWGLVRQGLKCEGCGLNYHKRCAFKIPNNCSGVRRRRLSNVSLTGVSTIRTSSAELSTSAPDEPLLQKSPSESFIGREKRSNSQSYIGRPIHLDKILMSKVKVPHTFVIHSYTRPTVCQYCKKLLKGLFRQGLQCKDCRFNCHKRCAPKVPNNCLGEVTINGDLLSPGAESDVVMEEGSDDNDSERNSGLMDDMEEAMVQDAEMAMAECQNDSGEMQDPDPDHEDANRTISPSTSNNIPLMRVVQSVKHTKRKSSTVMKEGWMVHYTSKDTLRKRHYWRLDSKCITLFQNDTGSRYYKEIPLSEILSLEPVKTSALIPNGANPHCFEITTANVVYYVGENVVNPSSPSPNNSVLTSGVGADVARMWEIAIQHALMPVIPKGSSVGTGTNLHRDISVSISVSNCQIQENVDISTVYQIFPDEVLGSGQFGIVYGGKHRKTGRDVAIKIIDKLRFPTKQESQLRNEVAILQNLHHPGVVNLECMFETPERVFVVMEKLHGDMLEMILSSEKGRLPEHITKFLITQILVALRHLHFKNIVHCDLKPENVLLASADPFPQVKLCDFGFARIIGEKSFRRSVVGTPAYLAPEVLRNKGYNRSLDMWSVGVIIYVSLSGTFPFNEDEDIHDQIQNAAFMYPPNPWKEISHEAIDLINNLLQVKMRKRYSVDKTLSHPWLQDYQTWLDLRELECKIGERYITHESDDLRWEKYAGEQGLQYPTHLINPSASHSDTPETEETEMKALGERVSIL
In words: In vitro radiometric PKD kinase assay. On the set-up: purchased Biomol International. It counts as biochemical. Particulars: for IC50: radiometric kinase assay, mean ± S.E.M.; for fold greater selectivity toward PKD1: versus PKD2 and PKD3. Here is the method:
In vitro radiometric kinase assays were conducted as previously described. Briefly, 1 μCi [γ-^32P] ATP (PerkinElmer Life Sciences), 70 μM ATP, 50 ng purified recombinant human PKD1 (Biomol International, Plymouth Meeting, PA), PKD2 (SignalChem, Richmond, BC, Canada), or CAMKIIα (Enzo Life Sciences) or 75 ng PKD3 (Enzo Life Sciences), and 2.5 μg syntide-2 (Sigma) in 50 μl kinase buffer containing 50 mM Tris-HCl, pH 7.5, 4 mM MgCl2, and 10 mM β-mercaptoethanol. For the CAMK assay, 0.5 mM CaCl2 and 30 ng/μl calmodulin were pre-incubated for 10 min on ice, and then added to each reaction mixture. The reaction was incubated at 30°C for 10 min, and 25 μl of the reaction mixture was then spotted onto Whatman P81 filter paper (Whatman Inc., Clifton, NJ). The filter papers were washed 3 times in 0.5% phosphoric acid, air-dried, and counted using a Beckman LS6500 multipurpose scintillation counter (Beckman).
The in vitro inhibitory activities of the novel compounds toward PKD were determined using radiometric PKD kinase activity assays. Recombinant human PKD1, -2, or -3 was incubated with the substrate, syntide-2, in the presence of 10 different concentrations of each compound. IC50 values were determined for each compound by plotting percent PKD activity versus compound concentration for each point.
A-E, inhibition of recombinant human PKD1 in vitro. […] A 10-point concentration curve was generated for each compound for IC50 determination. Each IC50 was determined as the mean ± S.E.M. of three independent experiments with triplicate determinations at each concentration in each experiment. Representative graphs are shown.

In general, EC50 refers to the midpoint of the concentration-response curve. A word on the IC50: it is the concentration at which inhibition is half-maximal. Turning to `COc1ccc2sc3c(c2c1)SCCNC3=O` [kb-NB165-09], a half-maximal effect in “MTT cytotoxicity assay” (PC3 cells) (EC50 at 72 h) was put at 50 µM. This compound also showed a percent invasion in the data set with DU145 cells of 10%. The compound further yielded an IC50 on PKD1 of 0.0825 ± 0.0046 µM.
`O=C1NCCCc2c1oc1ccc(O)cc21` [CID755673, 7-Hydroxy-2,3,4,5-tetrahydro-[1]benzoxolo[2,3-c]azepin-1-one] registered an EC50 at 72 h in “MTT cytotoxicity assay” (PC3 cells) of 320 µM. Further, the “inhibition of invasion (in words)” value with DU145 cells is given as “significantly inhibited invasion”. Moreover, the IC50 against PKD1 stood at 0.182 ± 0.027 µM.
`O=C1NCCSc2c1sc1ccc(O)c(I)c21` [kb-NB165-31] had an EC50 at 72 h in “MTT cytotoxicity assay” of 31.9 µM. In addition, in the data set on DU145 cells, the “inhibition of invasion (in words)” value was “levels similar to the parental compound”. The compound further showed an IC50 against PKD1 of 0.114 ± 0.0239 µM.
As for `COc1ccc2sc3c(c2c1)SCCCNC3=O` [kb-NB184-02], in the data set “MTT cytotoxicity assay”, the concentration for a half-maximal effect (EC50) at 72 h came to 33.8 µM. Moreover, the “inhibition of invasion (in words)” value in the data set with DU145 cells is reported as “levels similar to the parental compound”. Also, on PKD1, half-maximal inhibition (IC50) required 0.193 ± 0.0274 µM and the “fold greater selectivity toward PKD1” value is given as “about 2 fold”.
Compound `O=C1NCCSc2c1sc1ccc(O)cc21` [kb-NB142-70] showed an EC50 at 72 h in “MTT cytotoxicity assay” (PC3 cells) of 8.03 µM. This compound registered a percent invasion in the data set on DU145 cells of 10%. In addition, at PKD1, the “fold greater inhibition of PKD1 than the parental compound CID755673” value turned out to be 7 fold, half-maximal inhibition (IC50) required 0.0283 ± 0.0023 µM and the “fold greater selectivity toward PKD1” value is reported as “about 2 fold”.
In “MTT cytotoxicity assay”, `O=C1NCCCSc2c1sc1ccc(O)cc21` [kb-NB165-92] returned an EC50 at 72 h of 78.3 µM. In addition, in the data set on DU145 cells, the “inhibition of invasion (in words)” value was “levels similar to the parental compound”. On PKD1, the midpoint of inhibition, the IC50, lay at 0.111 ± 0.006 µM. Also, the “fold reduction of potency for PKD1” value on PKD1 (versus kb-NB142-70) is listed as 2-4 fold.
